Data reported in patent publication US20140335083A1, “METHODS OF TREATMENT AND PREVENTION OF EYE DISEASES” (GLAXO GROUP LIMITED, priority 2011, published 2014).

Target: T1, CCR3 (Mus musculus, UniProt P51678)
T1 construct: endogenous in cells; host or cells: juvenile mice in vivo; CCR3-bearing cells, mainly eosinophils
T1 sequence (P51678 1-359): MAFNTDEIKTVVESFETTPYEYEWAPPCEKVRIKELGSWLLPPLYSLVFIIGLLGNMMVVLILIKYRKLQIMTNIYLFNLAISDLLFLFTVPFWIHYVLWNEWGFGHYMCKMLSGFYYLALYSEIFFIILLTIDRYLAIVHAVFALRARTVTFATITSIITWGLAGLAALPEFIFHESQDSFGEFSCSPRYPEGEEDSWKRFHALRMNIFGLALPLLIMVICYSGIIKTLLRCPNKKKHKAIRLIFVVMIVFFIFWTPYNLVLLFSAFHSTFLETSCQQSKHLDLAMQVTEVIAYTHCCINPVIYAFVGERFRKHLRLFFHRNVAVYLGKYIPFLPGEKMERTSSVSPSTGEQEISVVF
Experiment: Fractional CCR3 receptor occupancy calculated from blood concentrations in juvenile mice
Format: in vivo
Experimental: Following dosing of 8 mg/kg i.p QD CCR3 inhibitor '994 in juvenile mice to mimic exposure effects in JR5558 mice, blood concentration at 24 hrs was calculated for 2 mg/kg i.p, 8 mg.kg i.p and 30 mg/kg i.p. doses by projecting the log linear phase of the PK profile. Blood drug concentrations were then used to determine fractional receptor occupancy using the Langmuir binding isotherm and the pKi for CCR3 inhibitor '994 (estimated in a mouse eosinophil chemotaxis assay). The receptor occupancy values are small over estimates of the true value as the pKi for CCR3 inhibitor '994 was determined in buffer and not blood. The fractional CCR3 receptor occupancy will largely be due to binding to eosinophils as this is the predominant CCR3 bearing cell population. […] This same group also used very small doses of anti-CCR3 antibodies dosed by intravitreal injection to limit laser-induced CNV in mouse models and these very small doses would have very limited impact of fractional receptor occupancy even if they were able to access the systemic circulation. In addition, topical dosing of CCR3 inhibitor '994 as an eye drop formulation was also efficacious in the JR5558 model. […] It is highly likely however that systemic dosing drives exposure of CCR3 antagonist in the eye and ultimately the effect on disease and the exposure in the eye is likely to be a complex function of the systemic exposure and thus an understanding of the systemic pharmacokinetics driving efficacy may be important in profiling systemic therapies.

## NC(=O)c1ccc(CNC(=O)NC[C@H]2CN(Cc3ccc(Cl)c(Cl)c3)CCO2)cc1 [CCR3 inhibitor '994, 4-[[[[[[(2s)-4-[(3,4-dichlorophenyl)methyl]-2-morpholinyl]methyl]-amino]carbonyl]-amino]methyl]benzamide]
2 mg/kg i.p., 24 h trough
  fractional CCR3 receptor occupancy: 3.1%
2 mg/kg i.p., at 8 hours
  fractional CCR3 receptor occupancy: 97.95%
8 mg/kg i.p., 24 h trough
  fractional CCR3 receptor occupancy: 11.36%
8 mg/kg i.p., at 8 hours
  fractional CCR3 receptor occupancy: 99.48%
30 mg/kg i.p., 24 h trough
  fractional CCR3 receptor occupancy: 32.45
30 mg/kg i.p., at 8 hours
  fractional CCR3 receptor occupancy: 99.86%
